The target of series [1] is T1, human 5-hydroxytryptamine-2C (h5-HT2C) receptor (Homo sapiens, UniProt P28335).
T1 construct: expressed in transfected cells; host or cells: CHO (Chinese Hamster Ovary) cells; membrane preparation
T1 sequence (P28335 33-458): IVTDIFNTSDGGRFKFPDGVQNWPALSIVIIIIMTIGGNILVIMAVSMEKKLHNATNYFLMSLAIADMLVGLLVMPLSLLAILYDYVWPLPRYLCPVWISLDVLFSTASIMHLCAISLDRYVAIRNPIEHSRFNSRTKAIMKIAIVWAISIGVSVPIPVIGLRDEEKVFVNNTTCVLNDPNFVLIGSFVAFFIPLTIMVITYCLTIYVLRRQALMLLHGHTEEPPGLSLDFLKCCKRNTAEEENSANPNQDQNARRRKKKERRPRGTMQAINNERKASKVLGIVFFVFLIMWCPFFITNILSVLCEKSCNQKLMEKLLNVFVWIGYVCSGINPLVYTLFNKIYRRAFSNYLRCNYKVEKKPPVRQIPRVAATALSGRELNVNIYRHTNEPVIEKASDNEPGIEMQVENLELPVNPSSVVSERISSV
Put plainly: [125I]DOI binding to membranes of CHO cells expressing h5-HT2C receptor. To be noted: read-out: 5-HT2C Binding Ki avg.

Another series deals with T2, human 5-HT2C receptor (Homo sapiens, UniProt P28335).
T2 sequence (P28335 33-458): T1 sequence (P28335 33-458)
Put plainly: calcium mobilization (FLIPR) in CHO cells stably expressing the human 5-HT2C receptor. The series is classed as cell-based. The settings on record: for Emax: CHO, read-out: 5-HT2C Function EMax (%); for pEC50: calcium mobilization, read-out: 5-HT2C Function EC50.

pEC50, pKi: −log10 of the molar value. Where a name gives a salt, the structure may show the parent alone.

What is called melting point is the temperature, or range, at which the solid turns liquid. Consider `COc1ccccc1-c1cc(F)cc2c1O[C@@H](CN)C=C2` (as salt: hydrochloride) [Compound 65, {[(2R)-6-fluoro-8-(2-methoxyphenyl)-2H-chromen-2-yl]methyl}amine hydrochloride], for which the melting point lay in the range of 198 to 200 °C.

For the compound `COc1ccccc1-c1cc(F)cc2c1O[C@@H](CN)CC2` (as salt: hydrochloride) [Compound 38, 1-[(2R)-6-fluoro-8-(2-methoxyphenyl)-3,4-dihydro-2H-chromen-2-yl]methanamine hydrochloride], the melting point is 100 °C (dec.).

With `NC[C@H]1CCc2cc(F)cc(-c3ccccc3-c3ccccc3)c2O1` (as salt: hydrochloride), the melting point came to 98 °C.

Turning to `NC[C@H]1CCc2cc(F)cc(-c3c(Cl)cccc3Cl)c2O1` (as salt: hydrochloride) [Compound 57, {[(2R)-8-(2,6-dichlorophenyl)-6-fluoro-3,4-dihydro-2H-chromen-2-yl]methyl}amine hydrochloride], the melting point lay in the range of 190 to 192 °C.

Compound `NC[C@H]1CCc2ccc(F)c(-c3ccccc3Cl)c2O1` (as salt: hydrochloride) [Compound 71, ((2R)-8-(2-chlorophenyl)-7-fluorochroman-2-yl)methanamine hydrochloride] returned a melting point of 223 to 225 °C.

`NC[C@H]1CCc2ccc(Cl)c(-c3ccccc3Cl)c2O1` (as salt: hydrochloride) yielded a melting point of 220 to 222 °C.

The compound `NC[C@H]1CCc2cccc(-c3c(Cl)cccc3Cl)c2O1` (as salt: hydrochloride) [Compound 36, {[(2R)-8-(2,6-dichlorophenyl)-3,4-dihydro-2H-chromen-2-yl]methyl}amine hydrochloride] returned a melting point of 188 to 190 °C.

Compound `Cc1ccccc1-c1c(Cl)ccc2c1O[C@@H](CN)CC2` (as salt: hydrochloride) [Compound 69, ((2R)-7-Chloro-8-o-tolylchroman-2-yl)methanamine hydrochloride] showed a melting point of 155 °C.

The compound `NC[C@H]1C=Cc2cc(F)cc(-c3cc(Cl)ccc3Cl)c2O1` (as salt: hydrochloride) [Compound 63, {[(2R)-8-(2,5-dichlorophenyl)-6-fluoro-2H-chromen-2-yl]methyl}amine hydrochloride] had a melting point of 217 to 219 °C.

The pKi is the negative decadic logarithm of the Ki, by convention in mol/L. By Emax is commonly meant the size of the effect at its maximum, as opposed to the concentration needed. By pEC50 is commonly meant the negative decadic logarithm of the EC50, by convention in mol/L. Consider `Cc1ccccc1-c1cccc2c1O[C@H](CN)CC2` [Compound 33, {[(2S)-8-(2-methylphenyl)-3,4-dihydro-2H-chromen-2-yl]methyl}amine hydrochloride], for which the pKi in series [1] was 7.30 to 8.00. For the same compound, on human 5-HT2C receptor, the Emax came out at 80% and the pEC50 is less than 6.70.

Take `CNC[C@@H]1CCc2cccc(-c3ccc(Cl)cc3Cl)c2O1` [Compound 21, {[(2S)-8-(2,4-dichlorophenyl)-3,4-dihydro-2H-chromen-2-yl]methyl}methylamine hydrochloride]: in series [1], the negative-log Ki (pKi) is less than 7.30. On human 5-HT2C receptor, the Emax is 80% and the pEC50 is 6.70 to 7.30.

In the case of `CNC[C@H]1CCc2cccc(-c3ccccc3OC)c2O1` [Compound 6, N-{[(2R)-8-(2-methoxyphenyl)-3,4-dihydro-2H-chromen-2-yl]methyl}-N-methylamine hydrochloride], the pKi in series [1] was no less than 8.00. At human 5-HT2C receptor, the Emax stood at 90% and the pEC50 was greater than 7.30.

For `CNC[C@H]1CCc2cccc(-c3c(Cl)cccc3Cl)c2O1` [Compound 35, {[(2R)-8-(2,6-dichlorophenyl)-3,4-dihydro-2H-chromen-2-yl]methyl}methylamine hydrochloride], in series [1], the pKi is no less than 8.00. Moreover, at human 5-HT2C receptor, the Emax was determined as 90% and the pEC50 was greater than 7.30.

`COc1ccccc1-c1cc(F)cc2c1O[C@@H](CN)CC2` [Compound 38, 1-[(2R)-6-fluoro-8-(2-methoxyphenyl)-3,4-dihydro-2H-chromen-2-yl]methanamine hydrochloride]: in series [1], the negative logarithm of the Ki (pKi) was no less than 8.00. Moreover, at human 5-HT2C receptor, the maximum response (Emax) amounted to 80% and the pEC50 is greater than 7.30.

For `NC[C@H]1CCc2cccc(-c3ccccc3)c2O1` [Compound 14, {[(2R)-8-phenyl-3,4-dihydro-2H-chromen-2-yl]methyl}amine hydrochloride], the negative logarithm of the Ki (pKi) in series [1] is 7.30 to 8.00. In addition, on human 5-HT2C receptor, the Emax came out at 80% and the pEC50 is less than 6.70.

Consider `NCC1CCc2cc(F)cc(-c3ccccc3Cl)c2O1` (stereo not drawn) [Compound 37, {[8-(2-chlorophenyl)-6-fluoro-3,4-dihydro-2H-chromen-2-yl]methyl}amine hydrochloride], for which the negative-log Ki (pKi) in series [1] is no less than 8.00. Besides, at human 5-HT2C receptor, the Emax was 100% and the pEC50 is greater than 7.30.

For `NCC1CCc2cccc(-c3ccccc3Cl)c2O1` (stereo not drawn) [Compound 2, {[8-(2-chlorophenyl)-3,4-dihydro-2H-chromen-2-yl]methyl}amine trifluoroacetate], the negative-log Ki (pKi) in series [1] is no less than 8.00. Also, at human 5-HT2C receptor, the maximum response (Emax) worked out at 80% and the negative logarithm of the EC50 (pEC50) was greater than 7.30.

As to `NC[C@H]1CCCc2cccc(-c3c(Cl)cccc3Cl)c2O1` [Compound 67, {[(2R)-9-(2,6-dichlorophenyl)-2,3,4,5-tetrahydro-1-benzoxepin-2-yl]methyl}amine hydrochloride], the negative-log Ki (pKi) in series [1] was 7.30 to 8.00. In addition, on human 5-HT2C receptor, the maximum response (Emax) is 80% and the negative logarithm of the EC50 (pEC50) was 6.70 to 7.30.

Take `NC[C@H]1C=Cc2cccc(-c3c(Cl)cccc3Cl)c2O1` [Compound 60, {[(2R)-8-(2,6-dichlorophenyl)-2H-chromen-2-yl]methyl}amine hydrochloride]: in series [1], the pKi was no less than 8.00. Moreover, on human 5-HT2C receptor, the maximal response (Emax) was 100% and the negative-log EC50 (pEC50) is greater than 7.30.

For the compound `COc1ccccc1-c1cccc2c1O[C@@H](CN)CC2` [Compound 15, {[(2R)-8-(2-methoxyphenyl)-3,4-dihydro-2H-chromen-2-yl]methyl}amine hydrochloride], the pKi in series [1] is no less than 8.00. Also, on human 5-HT2C receptor, the Emax came out at 90% and the pEC50 was greater than 7.30.

Consider `NC[C@H]1CCc2cc(F)cc(-c3cccnc3)c2O1` [Compound 50, {[(2R)-6-fluoro-8-pyridin-3-yl-3,4-dihydro-2H-chromen-2-yl]methyl}amine hydrochloride], for which the pKi in series [1] was 7.30 to 8.00. On human 5-HT2C receptor, the maximal response (Emax) turned out to be 90% and the pEC50 was greater than 7.30.

Take `CNC[C@H]1CCc2cc(F)cc(-c3ccccc3)c2O1` [Compound 42, {[(2R)-6-fluoro-8-phenyl-3,4-dihydro-2H-chromen-2-yl]methyl}methylamine hydrochloride]: the negative-log Ki (pKi) in series [1] is no less than 8.00. At human 5-HT2C receptor, the Emax came to 90% and the negative-log EC50 (pEC50) is 6.70 to 7.30.

Regarding `CNC[C@H]1CCc2cc(F)cc(-c3cccnc3)c2O1` [Compound 44, {[(2R)-6-fluoro-8-pyridin-3-yl-3,4-dihydro-2H-chromen-2-yl]methyl}methylamine hydrochloride], the negative logarithm of the Ki (pKi) in series [1] is 7.30 to 8.00. Also, on human 5-HT2C receptor, the maximal response (Emax) worked out at 80% and the pEC50 was less than 6.70.

For the compound `CNC[C@H]1CCc2cccc(-c3cccnc3)c2O1` [Compound 9, N-methyl-N-{[(2R)-8-pyridin-3-yl-3,4-dihydro-2H-chromen-2-yl]methyl}amine hydrochloride], the pKi in series [1] was no less than 8.00. Moreover, at human 5-HT2C receptor, the maximal effect (Emax) is 100% and the pEC50 was greater than 7.30.

Consider `NC[C@H]1CCc2cccc(-c3ccc(Cl)cc3Cl)c2O1` [Compound 13, {[(2R)-8-(2,4-dichlorophenyl)-3,4-dihydro-2H-chromen-2-yl]methyl}amine hydrochloride], for which the pKi in series [1] is no less than 8.00. In addition, on human 5-HT2C receptor, the Emax stood at 100% and the pEC50 is greater than 7.30.
